By IC50 is commonly meant the concentration that gives 50% inhibition.

The record followed here is patent US9809552B2, “Piperazine derivatives as FASN inhibitors” (Merck Patent GmbH, priority 2013, dated 2017).

Each structure is given as a SMILES string. Some results are limits rather than exact numbers.

This experiment deals with T1, human recombinant full-length fatty acid synthase (FASN) (Homo sapiens, UniProt P49327).
T1 construct: human recombinant full-length fatty acid synthase (produced in-house in SF9 cells); made in house; host or cells: SF9 insect cells
T1 sequence (P49327 whole entry): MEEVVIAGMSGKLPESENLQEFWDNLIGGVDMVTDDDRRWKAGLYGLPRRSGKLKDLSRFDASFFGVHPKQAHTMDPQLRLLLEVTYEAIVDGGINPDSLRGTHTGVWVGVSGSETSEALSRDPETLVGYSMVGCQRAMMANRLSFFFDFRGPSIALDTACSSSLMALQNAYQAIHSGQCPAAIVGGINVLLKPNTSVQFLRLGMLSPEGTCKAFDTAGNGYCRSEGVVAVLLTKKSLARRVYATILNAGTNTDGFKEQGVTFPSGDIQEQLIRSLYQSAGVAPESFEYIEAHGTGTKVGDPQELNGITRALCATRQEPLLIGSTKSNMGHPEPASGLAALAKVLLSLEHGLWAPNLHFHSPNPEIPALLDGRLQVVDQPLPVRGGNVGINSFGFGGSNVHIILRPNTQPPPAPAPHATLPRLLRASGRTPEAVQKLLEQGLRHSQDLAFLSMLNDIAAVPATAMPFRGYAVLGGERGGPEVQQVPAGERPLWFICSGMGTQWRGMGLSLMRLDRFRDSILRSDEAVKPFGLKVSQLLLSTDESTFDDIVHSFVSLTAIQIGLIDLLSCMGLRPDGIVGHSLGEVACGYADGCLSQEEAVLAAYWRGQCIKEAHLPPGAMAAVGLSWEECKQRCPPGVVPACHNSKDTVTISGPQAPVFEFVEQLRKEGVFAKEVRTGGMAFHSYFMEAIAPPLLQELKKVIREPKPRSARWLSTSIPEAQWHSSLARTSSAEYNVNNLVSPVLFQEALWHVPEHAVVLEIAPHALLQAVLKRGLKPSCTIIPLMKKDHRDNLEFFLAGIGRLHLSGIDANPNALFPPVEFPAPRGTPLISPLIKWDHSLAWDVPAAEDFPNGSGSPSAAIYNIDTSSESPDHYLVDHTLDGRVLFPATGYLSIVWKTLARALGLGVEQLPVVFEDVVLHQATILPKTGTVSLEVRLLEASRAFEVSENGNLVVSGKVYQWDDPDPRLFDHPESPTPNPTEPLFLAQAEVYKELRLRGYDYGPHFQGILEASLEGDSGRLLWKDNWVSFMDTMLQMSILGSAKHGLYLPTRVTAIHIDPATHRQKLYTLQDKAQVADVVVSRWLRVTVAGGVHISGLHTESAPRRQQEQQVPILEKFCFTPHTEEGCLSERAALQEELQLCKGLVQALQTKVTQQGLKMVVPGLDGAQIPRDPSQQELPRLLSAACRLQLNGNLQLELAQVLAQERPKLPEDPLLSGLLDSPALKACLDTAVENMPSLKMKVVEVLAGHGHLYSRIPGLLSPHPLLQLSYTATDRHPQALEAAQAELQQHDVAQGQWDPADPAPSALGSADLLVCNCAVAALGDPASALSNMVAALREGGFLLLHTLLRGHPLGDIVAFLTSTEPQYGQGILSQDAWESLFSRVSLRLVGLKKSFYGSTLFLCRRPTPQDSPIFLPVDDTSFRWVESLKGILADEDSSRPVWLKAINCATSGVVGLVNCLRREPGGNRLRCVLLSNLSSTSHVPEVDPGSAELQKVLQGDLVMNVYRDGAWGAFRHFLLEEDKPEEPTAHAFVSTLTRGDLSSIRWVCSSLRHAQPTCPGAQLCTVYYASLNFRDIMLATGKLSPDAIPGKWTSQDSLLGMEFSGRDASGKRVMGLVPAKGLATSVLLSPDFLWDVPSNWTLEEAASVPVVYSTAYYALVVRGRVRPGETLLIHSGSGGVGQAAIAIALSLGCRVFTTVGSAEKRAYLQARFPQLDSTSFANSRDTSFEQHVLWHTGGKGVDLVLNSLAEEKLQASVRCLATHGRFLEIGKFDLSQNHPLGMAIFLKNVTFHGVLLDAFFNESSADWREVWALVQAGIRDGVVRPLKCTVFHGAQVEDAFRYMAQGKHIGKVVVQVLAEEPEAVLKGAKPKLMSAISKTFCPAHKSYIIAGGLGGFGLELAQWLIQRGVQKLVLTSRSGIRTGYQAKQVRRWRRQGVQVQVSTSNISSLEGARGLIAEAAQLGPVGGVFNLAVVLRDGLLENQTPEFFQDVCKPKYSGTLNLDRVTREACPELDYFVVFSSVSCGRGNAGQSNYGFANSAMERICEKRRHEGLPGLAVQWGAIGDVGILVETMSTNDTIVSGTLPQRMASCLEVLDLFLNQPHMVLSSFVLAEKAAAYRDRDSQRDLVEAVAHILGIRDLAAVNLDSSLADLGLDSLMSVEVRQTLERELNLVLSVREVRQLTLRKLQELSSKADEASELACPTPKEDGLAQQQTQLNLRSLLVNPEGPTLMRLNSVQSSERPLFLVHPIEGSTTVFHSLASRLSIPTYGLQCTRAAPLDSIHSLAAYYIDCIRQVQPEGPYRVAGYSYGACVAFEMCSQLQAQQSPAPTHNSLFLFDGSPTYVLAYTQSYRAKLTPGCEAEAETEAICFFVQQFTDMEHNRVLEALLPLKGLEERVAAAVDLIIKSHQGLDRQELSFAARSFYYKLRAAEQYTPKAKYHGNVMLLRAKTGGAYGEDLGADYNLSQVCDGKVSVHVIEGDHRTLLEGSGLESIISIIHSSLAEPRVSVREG
Briefly: Biochemical activity testing of human fatty acid synthase FASN (NADPH fluorescence intensity enzyme assay). Particulars: 15 min pre-incubation, 30 min reaction at room temperature. From the text: Biochemical activity testing of human fatty acid synthase FASN
Fatty acid synthase FASN is a multifunctional enzyme with seven catalytic activities thereby synthesising long chain fatty acids especially palmitoyl-CoA in the presence of co-factor NADPH starting from the substrates acetyl-CoA and malonyl-CoA. The reductive synthesis is realized by the oxidation of NADPH to NADP. Since NADPH has a high fluorescence intensity quantum yield compared to NADP with excitation at 340 nm and emission at 460 nm, the reaction can be monitored via the decrease in fluorescence intensity. The biochemical FASN activity testing was performed as 384 well two-time-point kinetic fluorescence intensity assay format in Greiner low volume medium binding 384-well black microtiter plates in a total assay volume of 8 μl and was used for high throughput screen. In each well 3 μl 40 nM human recombinant full-length fatty acid synthase (produced in-house in SF9 cells) were dispensed in the following assay buffer: 50 mM potassium phosphate buffer pH 7.0, 0.005% (w/v) BSA, 2 mM Glutathione, 0.02% Tween-20. Then 2 μl of 200 μM NADPH in assay buffer were added, followed by the addition of the test compounds in 10 dilution concentrations starting with 30 μM (final concentration) to get a final DMSO content of 1% (v/v). The mixture was incubated for at least 15 min at room temperature. After the pre-incubation the enzymatic reaction was started by the addition of 2 μl substrate solution (80 μM acetyl-CoA, 240 μM malonyl-CoA). A first fluorescence intensity measurement (time point one) was performed with an Envision multimode reader (Perkin Elmer LAS Germany GmbH) at excitation wavelength 340 nm (lamp mode) and emission wavelength 460 nm. The reaction was incubated for 30 minutes at room temperature. After this the fluorescence intensity was measured again in the Envision using the same parameters as described above (second time point measurement). The data were analysed by subtracting the first time point measurement value from the second time point measurement value (after the enzymatic reaction). The differences of the emission signals were determined. These reflect directly the conversion rate of NADPH. The full value used was the inhibitor-free reaction. A pharmacological zero value was used like GSK837149A (Sigma-Aldrich) in a final concentration of 5-10 μM. The inhibitory values (IC50) were determined using either the program Symyx Assay Explorer® or Condosseo® from GeneData.
`CC(=O)N1CCN(C(=O)c2ccc(-c3ccc4cnccc4c3)cc2)CC1` [Compound A2, 1-[4-(4-isoquinolin-6-yl-benzoyl)-piperazin-1-yl]ethanone]: the half-inhibitory concentration (IC50) fell in the range of 300 to 3000 nM. Turning to `CCCC(=O)N1CCN(C(=O)c2ccc(-c3ccc4cnccc4c3)cc2)CC1` [Compound A6, 1-[4-(4-isoquinolin-6-yl-benzoyl)-piperazin-1-yl]-butan-1-one], the concentration for half-maximal inhibition (IC50) is < 300 nM. With `CCC(=O)N1CCN(C(=O)c2ccc(-c3ccc4c[n+]([O-])ccc4c3)cc2)CC1` [Compound A7, 1-{4-[4-(2-oxy-isoquinolin-6-yl)-benzoyl]-piperazin-1-yl}-propan-1-one], the IC50 was < 300 nM.

`CCCCC(=O)N1CCN(C(=O)c2ccc(-c3ccc4cnccc4c3)cc2)CC1` [Compound A5, 1-[4-(4-isoquinolin-6-yl-benzoyl)-piperazin-1-yl]-pentan-1-one]: the IC50 was < 300 nM.

With `CCCC(=O)N1CCN(C(=O)c2ccc(-c3ccc4cnc(OC)cc4c3)cc2)CC1` [Compound A4, 1-{4-[4-(3-methoxy-isoquinolin-6-yl)-benzoyl]-piperazin-1-yl}-butan-1-one], the concentration for half-maximal inhibition (IC50) was in the range of 300 to 3000 nM. Take `CCC(=O)N1CCN(C(=O)c2ccc(-c3ccc4cnccc4c3)cc2)CC1` [Compound A1, 1-[4-(4-isoquinolin-6-yl-benzoyl)-piperazin-1-yl]-propan-1-one]: the IC50 is < 300 nM. In the case of `O=C(c1ccc(-c2ccc3cnccc3c2)cc1)N1CCN(C(=O)C2CC2)CC1` [Compound A3, (4-cyclopropanecarbonyl-piperazin-1-yl)-(4-isoquinolin-6-yl-phenyl)-methanone], the IC50 is < 300 nM.
